This note sets out measurements from ChEMBL document CHEMBL1157117, “Synthesis of [11C]SSR149415 and preliminary imaging studies using positron emission tomography” (Bioorg Med Chem Lett, 2010).

The structures appear in SMILES notation.

A short description of data set [1]: Octanol/water partition coefficient, log D of the compound. Format: physicochemical.
Data set [2] in a line: Fraction unbound in baboon plasma. Format: ADME, cell-free. The settings on record: papio anubis.
Data set [3] in a line: Metabolic stability in baboon blood at 2.5+/-0.8 mCi, iv after 10 mins. In kind it is ADME, organism-based. The settings on record: papio anubis, read-out: Stability.
A short description of data set [4]: Biodistribution in baboon liver at 2.5+/-0.8 mCi, iv followed by second dose administered > 2 hrs after initial dose measured per cc after 90 mins. Format: ADME, organism-based. The settings on record: papio anubis, in vivo, 1.5 h.
Data set [5] can be described thus: Biodistribution in baboon lung at 2.5+/-0.8 mCi, iv followed by second dose administered > 2 hrs after initial dose measured per cc after 90 mins. Format: ADME, organism-based. The settings on record: papio anubis, in vivo, 1.5 h.
Data set [6] is described as follows: Selectivity ratio of vasopressin V1b receptor over vasopressin V2 receptor.
Data set [7] in a line: Biodistribution in baboon heart at 2.5+/-0.8 mCi, iv followed by second dose administered > 2 hrs after initial dose measured per cc after 90 mins. The settings on record: papio anubis, in vivo, 1.5 h. Format: ADME, organism-based.
Data set [8] can be described thus: Selectivity ratio of vasopressin V1b receptor over vasopressin V1a receptor.
Data set [9] in a line: Selectivity ratio of vasopressin V1b receptor over oxytocin receptor.
Data set [10] in a line: Biodistribution in baboon spleen at 2.5+/-0.8 mCi, iv followed by second dose administered > 2 hrs after initial dose measured per cc after 90 mins. In kind it is ADME, organism-based. To be noted: papio anubis, in vivo, 1.5 h.

For the compound `COc1ccccc1[C@@]1(N2C[C@H](O)C[C@H]2C(=O)N(C)C)C(=O)N(S(=O)(=O)c2ccc(O[11CH3])cc2OC)c2ccc(Cl)cc21`, the logD (commonly the decadic logarithm of the distribution of all forms, ionised or not, between an organic phase and buffer at a given pH) in data set [1] stood at 3.22. For the same compound, in data set [2], the fraction unbound (usually free concentration divided by total concentration) came out at 0.0254. Also, in [3], the remaining at 10 min is 50%.
Turning to `COc1ccc(S(=O)(=O)N2C(=O)[C@@](c3ccccc3OC)(N3C[C@H](O)C[C@H]3C(=O)N(C)C)c3cc(Cl)ccc32)c(OC)c1` [NELIVAPTAN], the Drug uptake in data set [4] stood at 0.1 %ID; in data set [5], 0.01 %ID; in data set [7], 0.01 %ID; in [10], 0.01 %ID. The Ratio in data set [6], in [8] and in data set [9] was 100 in each case.
